# Patent publication US4156011A, “Sulphur- and oxygen-containing diaryl compounds” (priority 1974, dated 1979)
# Where a name gives a salt, the structure may show the parent alone.
# Test: Solubility of the isolated product
# Details: alcohol
row,Compound,solubility in alcohol (in words)
1,"CC(Oc1ccc(Sc2ccc(Cl)cc2)cc1)C(=O)O (racemic) [CRL 40,246, (±)-2-[4-Chlorophenylthio)-phenoxy]-propionic acid]",soluble in alcohol

# Same assay, conditions: hot alcohol
row,solubility in hot alcohol (in words),Compound
1,soluble in hot alcohol,"CC(C)(Oc1ccc(S(=O)(=O)c2ccc(Cl)cc2)cc1)C(=O)OCCNCCSCCCCCCCCCCSCCNCCOC(=O)C(C)(C)Oc1ccc(S(=O)(=O)c2ccc(Cl)cc2)cc1 [CRL 40241, 6,17-Dithia-3,20-diaza-1,22-docosanediol di-p-(p-chlorophenylsulphonyl)-phenoxy-isobutyrate]"

# Same assay, conditions: water
Compound,solubility in water (in words),solubility [mg/mL]
"CC(CNC(C)(C)CO)Oc1ccc(Oc2ccc(Cl)cc2)cc1.Cl (racemic) [CRL 40 302, (±)-N-(β-Hydroxy-α,α-dimethylethyl)-2-[4-(4-chlorophenoxy)-phenoxy]-1-propylamine hydrochloride]",,200
"CC(Oc1ccc(Oc2ccc(Cl)cc2)cc1)C(=O)O (racemic) [CRL 40,299, (±)-2-[4-(4-Chlorophenoxy)-phenoxy]-propionic acid]",insoluble in water,
"CC(C)(CNCCO)Oc1ccc(Oc2ccc(Cl)cc2)cc1 [CRL 40 311, N-Ethanol-2-[4-(4-chlorophenoxy)-phenoxy]-2-methyl-1-propylamine hydrochloride]",soluble in water,
"CC(COS(C)(=O)=O)Oc1ccc(Oc2ccc(Cl)cc2)cc1 (racemic) [Example 34, (±)-2-[4-(4-Chlorophenoxy)-phenoxyl]-propyl mesylate]",insoluble in water,
"CC(C)(Oc1ccc(Sc2ccc(Cl)cc2)cc1)C(=O)N(CCO)CCSCCCCCCCCCCSCCN(CCO)C(=O)C(C)(C)Oc1ccc(Sc2ccc(Cl)cc2)cc1 [CRL 40 254, 3,20-di[p-(p-chlorophenylthio)phenoxy-isobutyryl]-6,17-dithia-3,20-diaza-1,22-docosanediol]",insoluble in water,
"CC(C)(Oc1ccc(Oc2ccc(Cl)cc2)cc1)C(=O)NCCO [CRL 40 309, N-Hydroxyethyl-2-[4-(4-chlorophenoxy)-phenoxy]-2-methylpropionamide]",insoluble in water,
"Cl.NC(COc1ccc(Oc2ccc(Cl)cc2)cc1)=NO [CRL 40 337, 4-(4-Chlorophenoxy)-phenoxy-acetamidoxime hydrochloride]",partially soluble in water,
"CC(C)(Oc1ccc(Oc2ccc(Cl)cc2)cc1)C(=O)O [CRL 40,308, 4-(4-Chlorophenoxy)-phenoxy-isobutyric acid]",insoluble in water,
"CC(Oc1ccc(Sc2ccc(Cl)cc2)cc1)C(=O)O (racemic) [CRL 40,246, (±)-2-[4-Chlorophenylthio)-phenoxy]-propionic acid]",insoluble in water,
"Cl.N=C(N)COc1ccc(Oc2ccc(Cl)cc2)cc1 [CRL 40 338, 4-(4-Chlorophenoxy)-phenoxy-acetamidine hydrochloride]",soluble in water,

# Now from value to compound, other results behind:
solubility in water (in words),Compound,solubility [mg/mL]
water-insoluble,"CC(Sc1ccc(Sc2ccc(Cl)cc2)cc1)C(=O)O (racemic) [CRL 40,351, (±)-2-[p-(p-Chlorophenylthio)-phenylthio]-propionic acid]",
insoluble in water,"CC(Sc1ccc(Oc2ccc(Cl)cc2)cc1)C(=O)O (racemic) [CRL 40,281, (±)-2-[4-(4-chlorophenoxy)-phenylthio]-propionic acid]",
insoluble in water,"CC(C)(Oc1ccc(S(=O)(=O)c2ccc(Cl)cc2)cc1)C(=O)OCCNCCSCCCCCCCCCCSCCNCCOC(=O)C(C)(C)Oc1ccc(S(=O)(=O)c2ccc(Cl)cc2)cc1 [CRL 40241, 6,17-Dithia-3,20-diaza-1,22-docosanediol di-p-(p-chlorophenylsulphonyl)-phenoxy-isobutyrate]",
insoluble in water,"CC(C)(CNCCO)Sc1ccc(Oc2ccc(Cl)cc2)cc1 [CRL 40,279, N-Hydroxyethyl-4-(4-chlorophenoxy)phenylthio-isobutylamine]",
insoluble in water,"CC(C)(Sc1ccc(Oc2ccc(Cl)cc2)cc1)C(=O)O [CRL 40,275, 4-(4-chlorophenoxy)-phenylthio-isobutyric acid]",
